These results are taken from patent US9409952B2, “Peptide-compound cyclization method” (Chugai Seiyaku Kabushiki Kaisha, priority 2011, dated 2016).

SMILES strings stand for the structures. Positions of bridges follow the written chain, without caps; N, C: chain ends. Non-standard residues stand in square brackets, D forms with d. Residues, ends and D or L forms follow the SMILES beside them. ξ: configuration not given here. *: point of attachment. Ala(4-thiazolyl) = N[C@@H](Cc1cscn1)C(=O)O; Tyr(3-F) = N[C@@H](Cc1ccc(O)c(F)c1)C(=O)O; NMeF = CN[C@@H](Cc1ccccc1)C(=O)O; NMeI = CC[C@H](C)[C@H](NC)C(=O)O; NMeL = CN[C@@H](CC(C)C)C(=O)O; NMeV = CN[C@H](C(=O)O)C(C)C; Pip = O=C(O)[C@@H]1CCCCN1; NMeA = CN[C@@H](C)C(=O)O; Piperidide = C1CCN(*)CC1; ξF = NC(Cc1ccccc1)C(=O)O; Aze = O=C(O)[C@@H]1CCN1; Sar = CNCC(=O)O; tBu = CC(C)(C)*

The first data set is described as follows: Metabolic stability in human hepatic microsome. The class given is in vitro ADME. The note with it: human, microsomes, pH 7.4, CL NADPH(+).
The molecule `CC[C@H](C)[C@@H]1NC(=O)[C@@H]2CCCN2C(=O)CNC(=O)[C@H](COC(C)(C)C)NC(=O)[C@H](CC(C)C)N(C)C(=O)C(Cc2ccccc2)NC(=O)CN(C)C(=O)C[C@@H](C(=O)N2CCCCC2)NC(=O)[C@H](CC(C)C)N(C)C(=O)[C@H](Cc2ccccc2)NC(=O)[C@H]([C@@H](C)O)NC(=O)[C@H](C)N(C)C1=O` (stereo partly drawn) [DP-517] ([Sar][ξF][NMeL]S(tBu)GPI[NMeA]TF[NMeL]D-Piperidide; lactam N-12) showed a microsomal CLint at 1 uM of 31 µL/min/mg.

Still in this data set, the particulars now being: microsomes, pH 7.4; human hepatic microsome, NADPH(+); read-out: CL NADPH(+).
Regarding `CC(C)C[C@@H]1NC(=O)[C@H](Cc2ccccc2)N(C)C(=O)[C@H](C)N(C)C(=O)C[C@@H](C(=O)N2CCCCC2)NC(=O)[C@H]([C@@H](C)O)NC(=O)[C@H](CC(C)C)N(C)C(=O)[C@H](Cc2ccccc2)NC(=O)[C@H](CC(C)C)N(C)C(=O)[C@H](CC(C)C)N(C)C1=O` [DP-494] ([NMeA][NMeF]L[NMeL][NMeL]F[NMeL]TD-Piperidide; lactam N-9), the microsomal CLint at 1 uM is 330 µL/min/mg.
On to `CC[C@H](C)[C@@H]1NC(=O)[C@H](C)N(C)C(=O)CN(C)C(=O)C[C@@H](C(=O)N2CCCCC2)NC(=O)[C@H](CC(C)C)N(C)C(=O)[C@H](C)N(C)C(=O)[C@H](Cc2ccccc2)N(C)C(=O)[C@H]([C@@H](C)O)NC(=O)[C@H](Cc2ccccc2)N(C)C(=O)[C@H](CC(C)C)N(C)C1=O` [DP-519] ([Sar][NMeA]I[NMeL][NMeF]T[NMeF][NMeA][NMeL]D-Piperidide; lactam N-10), for which the microsomal CLint at 1 uM was found to be 157 µL/min/mg.
As for `CC(C)C[C@@H]1NC(=O)[C@H](CC(C)C)NC(=O)[C@H](C)N(C)C(=O)C[C@@H](C(=O)N2CCCCC2)NC(=O)[C@H](C(C)C)N(C)C(=O)[C@H](CC(C)C)NC(=O)[C@H](Cc2ccccc2)NC(=O)[C@H]([C@@H](C)O)NC(=O)[C@@H]2CCN2C(=O)[C@H](CC(C)C)NC(=O)[C@H](C)NC1=O` [DP-548] ([NMeA]LLAL[Aze]TFL[NMeV]D-Piperidide; lactam N-11), the microsomal CLint at 1 uM worked out at 16 µL/min/mg.
As for `CC[C@H](C)[C@H]1C(=O)NCC(=O)N(C)[C@@H](CC(C)C)C(=O)N[C@@H]([C@@H](C)O)C(=O)N2CCC[C@H]2C(=O)N[C@@H](Cc2ccccc2)C(=O)N[C@H](C(=O)N2CCCCC2)CC(=O)N2CC[C@H]2C(=O)N[C@@H](Cc2ccccc2)C(=O)N(C)[C@@H](CC(C)C)C(=O)N[C@@H](CC(C)C)C(=O)N1C` [DP-550] ([Aze]F[NMeL]L[NMeI]G[NMeL]TPFD-Piperidide; lactam N-11), the microsomal CLint at 1 uM is 108 µL/min/mg.
With `CC[C@H](C)[C@H]1C(=O)NCC(=O)N(C)[C@@H](CC(C)C)C(=O)N[C@@H]([C@@H](C)O)C(=O)N2CCC[C@H]2C(=O)N[C@@H](Cc2ccccc2)C(=O)N[C@H](C(=O)N2CCCCC2)CC(=O)N(C)[C@@H](C)C(=O)N[C@@H](Cc2ccccc2)C(=O)N2CC[C@H]2C(=O)N[C@@H](CC(C)C)C(=O)N1C` [DP-552] ([NMeA]F[Aze]L[NMeI]G[NMeL]TPFD-Piperidide; lactam N-11), the microsomal CLint at 1 uM is 157 µL/min/mg.
Turning to `CC[C@H](C)[C@H]1C(=O)NCC(=O)N(C)[C@@H](CC(C)C)C(=O)N[C@@H]([C@@H](C)O)C(=O)N2CCC[C@H]2C(=O)N[C@@H](Cc2ccccc2)C(=O)N[C@H](C(=O)N2CCCCC2)CC(=O)N(C)[C@@H](C)C(=O)N[C@@H](Cc2ccccc2)C(=O)N2CCCC[C@H]2C(=O)N[C@@H](CC(C)C)C(=O)N1C` [DP-553] ([NMeA]F[Pip]L[NMeI]G[NMeL]TPFD-Piperidide; lactam N-11), the microsomal CLint at 1 uM was 106 µL/min/mg.
As for `CC(C)C[C@@H]1NC(=O)[C@H](CC(C)C)N(C)C(=O)[C@H](Cc2ccccc2)NC(=O)[C@H](C)N(C)C(=O)C[C@@H](C(=O)N2CCCCC2)NC(=O)[C@H](Cc2ccccc2)NC(=O)[C@@H]2CCCN2C(=O)[C@H]([C@@H](C)O)NC(=O)[C@H](CC(C)C)N(C)C(=O)CNC(=O)[C@@H]2CCN2C1=O` [DP-554] ([NMeA]F[NMeL]L[Aze]G[NMeL]TPFD-Piperidide; lactam N-11), the microsomal CLint at 1 uM is 80 µL/min/mg.
Regarding `CC(C)C[C@@H]1NC(=O)[C@H](CC(C)C)N(C)C(=O)[C@H](Cc2ccccc2)NC(=O)[C@H](C)N(C)C(=O)C[C@@H](C(=O)N2CCCCC2)NC(=O)[C@H](Cc2ccccc2)NC(=O)[C@@H]2CCCN2C(=O)[C@H]([C@@H](C)O)NC(=O)[C@H](CC(C)C)N(C)C(=O)CNC(=O)[C@@H]2CCCCN2C1=O` [DP-555] ([NMeA]F[NMeL]L[Pip]G[NMeL]TPFD-Piperidide; lactam N-11), the microsomal CLint at 1 uM was determined as 95 µL/min/mg.
With `CC[C@H](C)[C@H]1C(=O)NCC(=O)N2CC[C@H]2C(=O)N[C@@H]([C@@H](C)O)C(=O)N2CCC[C@H]2C(=O)N[C@@H](Cc2ccccc2)C(=O)N[C@H](C(=O)N2CCCCC2)CC(=O)N(C)[C@@H](C)C(=O)N[C@@H](Cc2ccccc2)C(=O)N(C)[C@@H](CC(C)C)C(=O)N[C@@H](CC(C)C)C(=O)N1C` [DP-556] ([NMeA]F[NMeL]L[NMeI]G[Aze]TPFD-Piperidide; lactam N-11), the microsomal CLint at 1 uM came to 65 µL/min/mg.
For the molecule `CC[C@H](C)[C@H]1C(=O)NCC(=O)N2CCCC[C@H]2C(=O)N[C@@H]([C@@H](C)O)C(=O)N2CCC[C@H]2C(=O)N[C@@H](Cc2ccccc2)C(=O)N[C@H](C(=O)N2CCCCC2)CC(=O)N(C)[C@@H](C)C(=O)N[C@@H](Cc2ccccc2)C(=O)N(C)[C@@H](CC(C)C)C(=O)N[C@@H](CC(C)C)C(=O)N1C` [DP-557] ([NMeA]F[NMeL]L[NMeI]G[Pip]TPFD-Piperidide; lactam N-11), the microsomal CLint at 1 uM came to 96 µL/min/mg.
As to `CC[C@H](C)[C@H]1C(=O)NCC(=O)N(C)[C@@H](CC(C)C)C(=O)N[C@@H]([C@@H](C)O)C(=O)N2CC[C@H]2C(=O)N[C@@H](Cc2ccccc2)C(=O)N[C@H](C(=O)N2CCCCC2)CC(=O)N(C)[C@@H](C)C(=O)N[C@@H](Cc2ccccc2)C(=O)N(C)[C@@H](CC(C)C)C(=O)N[C@@H](CC(C)C)C(=O)N1C` [DP-558] ([NMeA]F[NMeL]L[NMeI]G[NMeL]T[Aze]FD-Piperidide; lactam N-11), the microsomal CLint at 1 uM stood at 133 µL/min/mg.
For `CC[C@H](C)[C@H]1C(=O)NCC(=O)N(C)[C@@H](CC(C)C)C(=O)N[C@@H]([C@@H](C)O)C(=O)N2CCCC[C@H]2C(=O)N[C@@H](Cc2ccccc2)C(=O)N[C@H](C(=O)N2CCCCC2)CC(=O)N(C)[C@@H](C)C(=O)N[C@@H](Cc2ccccc2)C(=O)N(C)[C@@H](CC(C)C)C(=O)N[C@@H](CC(C)C)C(=O)N1C` [DP-559] ([NMeA]F[NMeL]L[NMeI]G[NMeL]T[Pip]FD-Piperidide; lactam N-11), the microsomal CLint at 1 uM is 145 µL/min/mg.
In the case of `CC(C)C[C@@H]1NC(=O)[C@H](CC(C)C)N(C)C(=O)[C@H](CC(C)C)N(C)C(=O)[C@H](Cc2ccccc2)NC(=O)[C@H](Cc2ccccc2)N(C)C(=O)[C@H](CCC(N)=O)NC(=O)[C@H](CC(C)C)N(C)C(=O)[C@H](Cc2ccccc2)NC(=O)[C@H](C)NC(=O)C[C@@H](C(=O)N(C)[C@@H](Cc2ccccc2)C(=O)N[C@@H](C)C(=O)N2CCCCC2)NC1=O` [DP-601] (AF[NMeL]Q[NMeF]F[NMeL][NMeL]LD[NMeF]A-Piperidide; lactam N-10), the microsomal CLint at 1 uM turned out to be 21 µL/min/mg.
For the molecule `CC(C)C[C@@H]1NC(=O)[C@H](CC(C)C)N(C)C(=O)[C@H](CC(C)C)N(C)C(=O)[C@H](CCC(N)=O)NC(=O)[C@H](Cc2ccccc2)N(C)C(=O)[C@H]([C@@H](C)O)NC(=O)[C@H](CC(C)C)N(C)C(=O)[C@H](Cc2ccccc2)NC(=O)[C@H](C)NC(=O)C[C@@H](C(=O)N(C)[C@@H](Cc2ccccc2)C(=O)N[C@@H](C)C(=O)N2CCCCC2)NC1=O` [DP-602] (AF[NMeL]T[NMeF]Q[NMeL][NMeL]LD[NMeF]A-Piperidide; lactam N-10), the microsomal CLint at 1 uM came to 26 µL/min/mg.
In the case of `CC(C)C[C@@H]1NC(=O)[C@H](CC(C)C)N(C)C(=O)[C@H](CC(C)C)N(C)C(=O)[C@H](C)NC(=O)[C@H](Cc2ccccc2)N(C)C(=O)[C@H](CCC(=O)N(C)C)NC(=O)[C@H](CC(C)C)N(C)C(=O)[C@H](Cc2ccccc2)NC(=O)[C@H](C)NC(=O)C[C@@H](C(=O)N(C)[C@@H](Cc2ccccc2)C(=O)N[C@@H](C)C(=O)N2CCCCC2)NC1=O` [DP-603] (AF[NMeL]E(NMe2)[NMeF]A[NMeL][NMeL]LD[NMeF]A-Piperidide; lactam N-10), the microsomal CLint at 1 uM came out at 17 µL/min/mg.
The same measure, in the same setting: the figure for `CC(C)C[C@@H]1NC(=O)[C@H](CC(C)C)N(C)C(=O)[C@H](CC(C)C)N(C)C(=O)CNC(=O)[C@H](Cc2ccccc2)N(C)C(=O)[C@H]([C@@H](C)O)NC(=O)[C@H](CC(C)C)N(C)C(=O)[C@H](Cc2ccc(O)c(F)c2)NC(=O)[C@H](C)NC(=O)C[C@@H](C(=O)N(C)[C@@H](Cc2ccccc2)C(=O)N[C@@H](C)C(=O)N2CCCCC2)NC1=O` [DP-605] (A[Tyr(3-F)][NMeL]T[NMeF]G[NMeL][NMeL]LD[NMeF]A-Piperidide; lactam N-10) is 30 µL/min/mg; for `CC(C)C[C@@H]1NC(=O)[C@H](CC(C)C)N(C)C(=O)[C@H](C)N(C)C(=O)[C@H](Cc2ccc(O)c(F)c2)NC(=O)[C@H](Cc2ccccc2)N(C)C(=O)[C@H]([C@@H](C)O)NC(=O)[C@H](CC(C)C)N(C)C(=O)[C@H](Cc2ccccc2)NC(=O)[C@H](C)NC(=O)C[C@@H](C(=O)N(C)[C@@H](Cc2ccccc2)C(=O)N[C@@H](C)C(=O)N2CCCCC2)NC1=O` [DP-606] (AF[NMeL]T[NMeF][Tyr(3-F)][NMeA][NMeL]LD[NMeF]A-Piperidide; lactam N-10) it is 70 µL/min/mg.
Regarding `CC(C)C[C@H]1C(=O)N(C)[C@@H](CC(C)C)C(=O)N[C@@H](Cc2c[nH]c3ccccc23)C(=O)N[C@H](C(=O)N(C)[C@@H](Cc2ccccc2)C(=O)N[C@@H](C)C(=O)N2CCCCC2)CC(=O)N[C@@H](C)C(=O)N[C@@H](Cc2ccccc2)C(=O)N(C)[C@@H](CC(C)C)C(=O)N[C@@H]([C@@H](C)O)C(=O)N(C)[C@@H](Cc2ccccc2)C(=O)NCC(=O)N1C` [DP-608] (AF[NMeL]T[NMeF]G[NMeL][NMeL]WD[NMeF]A-Piperidide; lactam N-10), the microsomal CLint at 1 uM worked out at 13 µL/min/mg.
Turning to `CC(C)C[C@@H]1NC(=O)[C@H](CC(C)C)N(C)C(=O)[C@H](CC(C)C)N(C)C(=O)CNC(=O)[C@H](Cc2ccccc2)N(C)C(=O)[C@H](Cc2cscn2)NC(=O)[C@H](CC(C)C)N(C)C(=O)[C@H](Cc2ccccc2)NC(=O)[C@H](C)NC(=O)C[C@@H](C(=O)N(C)[C@@H](Cc2ccccc2)C(=O)N[C@@H](C)C(=O)N2CCCCC2)NC1=O` [DP-609] (AF[NMeL][Ala(4-thiazolyl)][NMeF]G[NMeL][NMeL]LD[NMeF]A-Piperidide; lactam N-10), the microsomal CLint at 1 uM was 16 µL/min/mg.
